Experimental data from US10131652B2, “Pyrimidinyloxy benzene derivatives as herbicides” (E. I. DU PONT DE NEMOURS AND COMPANY, priority 2014, dated 2018).

Legend:
Type in all cases: in vivo
[1] = system: barnyardgrass (Echinochloa crus-galli); assay: Test D pre-/postemergence plant response; conditions: Postemergence; for Plant response rating, Barnyardgrass: scale 0 to 100, 0 no effect, 100 complete control
Procedure, shortened: (§1)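 Visual rating, 0–100 scale (0 = no effect, 100 = complete control), versus untreated controls 13 to 15 days after treatment in greenhouse. Preemergence: seeds in loam/sand soil. Postemergence: 2 to 18 cm plants, 1- to 4-leaf stage, peat-based medium. Compounds formulated in non-phytotoxic solvent plus surfactant.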

[2] = system: velvetleaf (Abutilon theophrasti); assay: Test D pre-/postemergence plant response; conditions: Postemergence
Procedure, shortened: as §1

[3] = system: johnsongrass (Sorghum halepense); assay: Test D pre-/postemergence plant response; conditions: Postemergence; for Plant response rating, Johnsongrass: scale 0 to 100, 0 no effect, 100 complete control
Procedure, shortened: as §1

[4] = system: oilseed rape (Brassica napus); assay: Test D pre-/postemergence plant response; conditions: Postemergence
Procedure, shortened: as §1

[5] = system: giant foxtail (Setaria faberii); assay: Test D pre-/postemergence plant response; conditions: Postemergence; for Plant response rating, Foxtail, Giant: scale 0 to 100, 0 no effect, 100 complete control
Procedure, shortened: as §1

[6] = system: blackgrass (Alopecurus myosuroides); assay: Test D pre-/postemergence plant response; conditions: Postemergence; for Plant response rating, Blackgrass: scale 0 to 100, 0 no effect, 100 complete control
Procedure, shortened: as §1

[7] = system: pigweed (Amaranthus retroflexus); assay: Test D pre-/postemergence plant response; conditions: Postemergence
Procedure, shortened: as §1

kochia (Kochia scoparia) = assay: Test B pre-/postemergence plant response
Procedure, shortened: (§2)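 Scoring used a 0–100 scale (100 = complete control) by visual comparison with untreated plants after approximately 10 days in the greenhouse. Compounds, in surfactant-containing non-phytotoxic solvent, were sprayed onto soil at planting or onto 2–10 cm seedlings.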

[8] = system: Italian ryegrass (Lolium multiflorum); assay: Test B pre-/postemergence plant response
Procedure, shortened: as §2

[9] = system: ragweed (common ragweed, Ambrosia elatior); assay: Test B pre-/postemergence plant response
Procedure, shortened: as §2

[10] = system: barnyardgrass (Echinochloa crus-galli); assay: Test C flooded paddy test plant response; conditions: Flood, 250 g ai/ha; scale of 0 to 100 where 0 is no effect and 100 is complete control; 13 to 15 days
Procedure, shortened: (§3)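 Scored visually on a 0–100 scale (100 = complete control) against untreated plants 13 to 15 days after treatment in the greenhouse. Compounds went into paddy water of pots flooded to 3 cm, holding 2-leaf-stage plants.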

rice (Oryza sativa) = assay: Test C flooded paddy test plant response; conditions: Flood, 250 g ai/ha; scale of 0 to 100 where 0 is no effect and 100 is complete control; 13 to 15 days
Procedure, shortened: as §3

[11] = system: ducksalad (Heteranthera limosa); assay: Test C flooded paddy test plant response; conditions: Flood, 250 g ai/ha; scale of 0 to 100 where 0 is no effect and 100 is complete control; 13 to 15 days
Procedure, shortened: as §3

[12] = system: small-flower umbrella sedge (Cyperus difformis); assay: Test C flooded paddy test plant response; conditions: Flood, 250 g ai/ha; scale of 0 to 100 where 0 is no effect and 100 is complete control; 13 to 15 days
Procedure, shortened: as §3

[13] = 31 g ai/ha, scale 0 to 100 (0 no effect, 100 complete control)
[14] = 62 g ai/ha, scale 0 to 100, 0 no effect, 100 complete control
[15] = 125 g ai/ha, scale 0 to 100, 0 no effect, 100 complete control
[16] = 31 g ai/ha, Preemergence, 0 to 100 scale where 0 is no effect and 100 is complete control
[17] = 125 g ai/ha, postemergence, 0 to 100 scale, 0 no effect, 100 complete control
[18] = Postemergence, 31 g ai/ha, 0 to 100 scale (0 no effect, 100 complete control)
[19] = Preemergence, 125 g ai/ha, 0 to 100 scale (0 no effect, 100 complete control)

FC(F)c1cc(-c2ccccc2Oc2ncc(Br)cn2)on1 [Compound 212]
50: Velvetleaf plant response rating [2, 13]
5: Plant response rating (scale 0 to 100), Barnyardgrass ([1]; 16 g ai/ha) | Barnyardgrass plant response rating [1, 13] | Plant response rating (scale 0 to 100), Johnsongrass ([3]; 16 g ai/ha) | Johnsongrass plant response rating [3, 13]
60: Velvetleaf plant response rating [2, 14] | Plant response rating, Ragweed [9, 17]
25: Plant response rating, Barnyardgrass ([1]; 125 g ai/ha)
100: Plant response rating (scale 0 to 100), Pigweed ([7]; 16 g ai/ha) | Pigweed plant response rating [7, 13] | Pigweed plant response rating [7, 14] | Plant response rating, Pigweed [7, 15] | Plant response rating, Kochia (kochia (Kochia scoparia); [17])
10: Plant response rating (scale 0 to 100), Oilseed Rape ([4]; 16 g ai/ha) | Plant response rating (scale 0 to 100), Foxtail, Giant ([5]; 16 g ai/ha) | Foxtail, Giant plant response rating [5, 13] | Plant response rating, Foxtail, Giant ([5]; 125 g ai/ha) | Plant response rating, Blackgrass ([6]; 125 g ai/ha)
75: Ducksalad plant response rating [11] | Sedge, Umbrella plant response rating [12]
90: Plant response rating, Velvetleaf [2, 15] | Plant response rating, Kochia (kochia (Kochia scoparia); [18]) | Kochia plant response rating (kochia (Kochia scoparia); [19])
15: Plant response rating, Barnyardgrass ([1]; 62 g ai/ha) | Plant response rating, Foxtail, Giant ([5]; 62 g ai/ha)
35: Plant response rating, Oilseed Rape [4, 15]
40: Plant response rating, Kochia (kochia (Kochia scoparia); [16]) | Ryegrass, Italian plant response rating [8, 19] | Ragweed plant response rating [9, 19]
20: Plant response rating (scale 0 to 100), Velvetleaf ([2]; 16 g ai/ha) | Plant response rating, Johnsongrass ([3]; 62 g ai/ha) | Plant response rating, Johnsongrass ([3]; 125 g ai/ha) | Oilseed Rape plant response rating [4, 14] | Plant response rating, Ryegrass, Italian [8, 17] | Plant response rating, Ragweed [9, 18] | Rice plant response rating (rice (Oryza sativa))
0: Plant response rating (scale 0 to 100), Blackgrass ([6]; 16 g ai/ha) | Blackgrass plant response rating [6, 13] | Plant response rating, Blackgrass ([6]; 62 g ai/ha) | Plant response rating, Ryegrass, Italian [8, 16] | Plant response rating, Ryegrass, Italian [8, 18] | Plant response rating, Ragweed [9, 16] | Barnyardgrass plant response rating [10]

CC(F)(F)c1cc(-c2ccccc2Oc2ncc(Cl)cn2)no1 [Compound 220]
50: Plant response rating, Kochia (kochia (Kochia scoparia); [16])
85: Plant response rating (scale 0 to 100), Pigweed ([7]; 16 g ai/ha)
30: Ryegrass, Italian plant response rating [8, 19]
25: Plant response rating (scale 0 to 100), Velvetleaf ([2]; 16 g ai/ha)
100: Plant response rating, Kochia (kochia (Kochia scoparia); [17])
90: Plant response rating, Kochia (kochia (Kochia scoparia); [18]) | Kochia plant response rating (kochia (Kochia scoparia); [19])
10: Plant response rating (scale 0 to 100), Barnyardgrass ([1]; 8 g ai/ha) | Plant response rating (scale 0 to 100), Barnyardgrass ([1]; 16 g ai/ha) | Plant response rating (scale 0 to 100), Velvetleaf ([2]; 8 g ai/ha) | Plant response rating (scale 0 to 100), Oilseed Rape ([4]; 16 g ai/ha) | Plant response rating, Ragweed [9, 17] | Ragweed plant response rating [9, 19]
15: Plant response rating (scale 0 to 100), Velvetleaf ([2]; 4 g ai/ha)
75: Plant response rating (scale 0 to 100), Pigweed ([7]; 4 g ai/ha) | Sedge, Umbrella plant response rating [12]
70: Plant response rating (scale 0 to 100), Pigweed ([7]; 2 g ai/ha)
5: Plant response rating (scale 0 to 100), Barnyardgrass ([1]; 2 g ai/ha) | Plant response rating (scale 0 to 100), Barnyardgrass ([1]; 4 g ai/ha) | Plant response rating (scale 0 to 100), Velvetleaf ([2]; 2 g ai/ha) | Plant response rating (scale 0 to 100), Johnsongrass ([3]; 16 g ai/ha) | Plant response rating (scale 0 to 100), Oilseed Rape ([4]; 4 g ai/ha) | Plant response rating (scale 0 to 100), Oilseed Rape ([4]; 8 g ai/ha) | Plant response rating (scale 0 to 100), Foxtail, Giant ([5]; 4 g ai/ha) | Plant response rating (scale 0 to 100), Foxtail, Giant ([5]; 8 g ai/ha) | Plant response rating (scale 0 to 100), Foxtail, Giant ([5]; 16 g ai/ha) | Plant response rating (scale 0 to 100), Blackgrass ([6]; 16 g ai/ha)
0: Plant response rating (scale 0 to 100), Johnsongrass ([3]; 2 g ai/ha) | Plant response rating (scale 0 to 100), Johnsongrass ([3]; 4 g ai/ha) | Plant response rating (scale 0 to 100), Johnsongrass ([3]; 8 g ai/ha) | Plant response rating (scale 0 to 100), Oilseed Rape ([4]; 2 g ai/ha) | Plant response rating (scale 0 to 100), Foxtail, Giant ([5]; 2 g ai/ha) | Plant response rating (scale 0 to 100), Blackgrass ([6]; 2 g ai/ha) | Plant response rating (scale 0 to 100), Blackgrass ([6]; 4 g ai/ha) | Plant response rating (scale 0 to 100), Blackgrass ([6]; 8 g ai/ha) | Plant response rating, Ryegrass, Italian [8, 16] | Plant response rating, Ryegrass, Italian [8, 18] | Plant response rating, Ragweed [9, 16] | Plant response rating, Ragweed [9, 18] | Rice plant response rating (rice (Oryza sativa))
40: Plant response rating, Ryegrass, Italian [8, 17]
20: Barnyardgrass plant response rating [10]
80: Plant response rating (scale 0 to 100), Pigweed ([7]; 8 g ai/ha) | Ducksalad plant response rating [11]
